The test addresses JMJD2C (Homo sapiens (Human), UniProt Q9H3R0). The test can be described thus: In vitro enzyme inhibition assay for JMJD2C activity (TR-FRET). The test is classed as biochemical. The protocol: This assay determines the ability of a test compound to inhibit JMJD2C demethylase activity. Baculovirus expressed JMJD2C (GenBank Accession #BC143571, AA 2-372) was purchased from BPS Bioscience (Cat#50105).
The ability of test compounds to inhibit the activity of JMJD2C was determined in 384-well plate format under the following reaction conditions: 0.3 nM JMJD2C, 300 nM H3K9me3-biotin labeled peptide (Anaspec cat #64360), 2 μM alpha-ketoglutaric acid in assay buffer of 50 mM HEPES, pH7.3, 0.005% Brij35, 0.5 mM TCEP, 0.2 mg/ml BSA, 50 μM sodium L-ascorbate, and 2 μM ammonium iron(II) sulfate. Reaction product was determined quantitatively by TR-FRET after the addition of detection reagent Phycolink Streptavidin-allophycocyanin (Prozyme) and Europium-anti-di-methylated histone H3 lysine 9 (H3K9me2) antibody (PerkinElmer) in the presence of 5 mM EDTA in LANCE detection buffer (PerkinElmer) at a final concentration of 50 nM and 1 nM, respectively.
The assay reaction was initiated by the following: 2 μl of the mixture of 900 nM H3K9me3-biotin labeled peptide and 6 μM alpha-ketoglutaric acid with 2 μl of 11-point serial diluted inhibitor in 3% DMSO were added to each well of the plate, followed by the addition of 2 μl of 0.9 nM JMJD2C to initiate the reaction. The reaction mixture was incubated at room temperature for 30 minutes, and terminated by the addition of 6 μl of 5 mM EDTA in LANCE detection buffer containing 100 nM Phycolink Streptavidin-allophycocyanin and 2 nM Europium-anti-H3K9me2 antibody. Plates were read by EnVisionMultilabel Reader in TR-FRET mode (excitation at 320 nm, emission at 615 nm and 665 nm) after 1 hour incubation at room temperature. A ratio was calculated (665/615) for each well and fitted to determine inhibition constant (IC50).
Background: TR-FRET usually uses a lanthanide donor and a delayed reading to cut background.

Molecules are shown by their SMILES.

Chain of JMJD2C (Q9H3R0 2-372): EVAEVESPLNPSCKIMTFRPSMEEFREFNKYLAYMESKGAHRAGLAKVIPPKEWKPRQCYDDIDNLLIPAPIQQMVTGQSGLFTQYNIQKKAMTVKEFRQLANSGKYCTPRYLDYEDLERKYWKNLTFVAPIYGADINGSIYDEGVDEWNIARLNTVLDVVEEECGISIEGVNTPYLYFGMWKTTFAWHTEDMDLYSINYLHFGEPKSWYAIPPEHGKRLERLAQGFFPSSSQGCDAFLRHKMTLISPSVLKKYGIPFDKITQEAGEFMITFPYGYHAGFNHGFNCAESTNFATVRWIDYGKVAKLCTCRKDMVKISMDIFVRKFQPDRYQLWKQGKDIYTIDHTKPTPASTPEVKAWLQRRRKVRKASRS

By IC50 is commonly meant the point on the concentration scale where inhibition reaches its midpoint. `Cc1c(F)cccc1-c1ccc2c(c1)OCC[C@@H]2CNc1cnccc1C(=O)O` [Example 41, 3-({[(4S)-7-(3-fluoro-2-methylphenyl)-3,4-dihydro-2H-1-benzopyran-4-yl]methyl}amino)pyridine-4-carboxylic acid] displayed an IC50 of 1000 to 10000 nM.

On to `O=C(O)c1ccncc1NC[C@H]1CCOc2cc(Oc3ccccc3)ccc21` [Example 47, 3-({[(4S)-7-phenoxy-3,4-dihydro-2H-1-benzopyran-4-yl]methyl}amino)pyridine-4-carboxylic acid], for which the IC50 was 1000 to 10000 nM.

`Cc1ccccc1Sc1ccc2c(c1)OCC[C@@H]2CNc1cnccc1C(=O)O` [Example 50, 3-({[(4S)-7-[(2-methylphenyl)sulfanyl]-3,4-dihydro-2H-1-benzopyran-4-yl]methyl}amino)pyridine-4-carboxylic acid]: the 50% inhibitory concentration (IC50) was 1000 to 10000 nM.

`Cc1ccccc1Oc1ccc2c(c1)CCC[C@@H]2CNc1cnccc1C(=O)O` [Example 57, 3-({[(1S)-6-(2-methylphenoxy)-1,2,3,4-tetrahydronaphthalen-1-yl]methyl}amino)pyridine-4-carboxylic acid]: the half-maximal inhibitory concentration (IC50) was 1000 to 10000 nM.

`O=C(O)c1ccncc1NC[C@H]1CCCc2cc(OC(F)F)ccc21` [Example 60, 3-({[(1S)-6-(difluoromethoxy)-1,2,3,4-tetrahydronaphthalen-1-yl]methyl}amino)pyridine-4-carboxylic acid] yielded an IC50 of 1000 to 10000 nM.

The compound `O=C(O)c1ccncc1NCC1CCCc2cc(Oc3ccccc3C(F)(F)F)ccc21` (centres unmarked) [Example 62, 3-[({6-[2-(trifluoromethyl)phenoxy]-1,2,3,4-tetrahydronaphthalen-1-yl}methyl)amino]pyridine-4-carboxylic acid] had an IC50 of 1000 to 10000 nM.

`Cc1cccc(Sc2ccc3c(c2)CCC[C@@H]3CNc2cnccc2C(=O)O)c1` [Example 68, 3-({[(1S)-6-[(3-methylphenyl)sulfanyl]-1,2,3,4-tetrahydronaphthalen-1-yl]methyl}amino)pyridine-4-carboxylic acid] gave an IC50 of 1000 to 10000 nM.

`Cc1ccccc1Sc1ccc2c(c1)CCC[C@@H]2CNc1cnccc1C(=O)O` [Example 70, 3-({[(1S)-6-[(2-methylphenyl)sulfanyl]-1,2,3,4-tetrahydronaphthalen-1-yl]methyl}amino)pyridine-4-carboxylic acid] showed a concentration for half-maximal inhibition (IC50) of 1000 to 10000 nM.

As for `O=C(O)c1ccncc1NC[C@H]1CCCc2cc(Sc3ccccc3F)ccc21` [Example 72, 3-({[(1S)-6-[(2-fluorophenyl)sulfanyl]-1,2,3,4-tetrahydronaphthalen-1-yl]methyl}amino)pyridine-4-carboxylic acid], the IC50 lay in the range of 1000 to 10000 nM.

For `O=C(O)c1ccncc1NC[C@H]1CCCc2cc(Sc3cccc(F)c3)ccc21` [Example 74, 3-({[(1S)-6-[(3-fluorophenyl)sulfanyl]-1,2,3,4-tetrahydronaphthalen-1-yl]methyl}amino)pyridine-4-carboxylic acid], the IC50 lay within 1000 to 10000 nM.

On to `O=C(O)c1ccncc1NC[C@@H]1CCCc2cc(Sc3cccc(F)c3)ccc21` [Example 75, 3-({[(1R)-6-[(3-fluorophenyl)sulfanyl]-1,2,3,4-tetrahydronaphthalen-1-yl]methyl}amino)pyridine-4-carboxylic acid], for which the half-inhibitory concentration (IC50) lay within 100 to 1000 nM.

`O=C(O)c1ccncc1NC[C@H]1CCCc2cc(Sc3ccc(F)cc3)ccc21` [Example 76, 3-({[(1S)-6-[(4-fluorophenyl)sulfanyl]-1,2,3,4-tetrahydronaphthalen-1-yl]methyl}amino)pyridine-4-carboxylic acid] came in with a 50% inhibitory concentration (IC50) of 1000 to 10000 nM.

Regarding `Cc1ccc(Sc2ccc3c(c2)CCC[C@@H]3CNc2cnccc2C(=O)O)cc1` [Example 78, 3-({[(1S)-6-[(4-methylphenyl)sulfanyl]-1,2,3,4-tetrahydronaphthalen-1-yl]methyl}amino)pyridine-4-carboxylic acid], the half-inhibitory concentration (IC50) is 1000 to 10000 nM.

In turn, `O=C(O)c1ccncc1NC[C@H]1CCCc2cc(S(=O)(=O)c3ccccc3)ccc21` [Example 81, 3-({[(1S)-6-(benzenesulfonyl)-1,2,3,4-tetrahydronaphthalen-1-yl]methyl}amino)pyridine-4-carboxylic acid] registered an IC50 of 100 to 1000 nM.

With `Cc1ccc(S(=O)(=O)c2ccc3c(c2)CCC[C@@H]3CNc2cnccc2C(=O)O)cc1` [Example 83, 3-({[(1S)-6-(4-methylbenzenesulfonyl)-1,2,3,4-tetrahydronaphthalen-1-yl]methyl}amino)pyridine-4-carboxylic acid], the half-inhibitory concentration (IC50) was 100 to 1000 nM.

For the compound `O=C(O)c1ccncc1NC[C@@H]1CCOc2cc(-c3ccccc3)ccc21` [Example 84 of U.S. Pat. No. 8,952,151, 3-({[(4R)-7-phenyl-3,4-dihydro-2H-1-benzopyran-4-yl]methyl}amino)pyridine-4-carboxylic acid, reference compound], the “fold more potent for JMJD2C than the S-enantiomer” value (R-enantiomer vs S-enantiomer) is “about 6 fold”.

Compound `Cc1cccc(S(=O)(=O)c2ccc3c(c2)CCC[C@@H]3CNc2cnccc2C(=O)O)c1` [Example 85, 3-({[(1S)-6-(3-methylbenzenesulfonyl)-1,2,3,4-tetrahydronaphthalen-1-yl]methyl}amino)pyridine-4-carboxylic acid] had a half-inhibitory concentration (IC50) of 1000 to 10000 nM.

For the compound `O=C(O)c1ccncc1NCC1CCCc2cc(S(=O)(=O)c3cccc(F)c3)ccc21` (centres unmarked) [Example 87, 3-({[6-(3-fluorobenzenesulfonyl)-1,2,3,4-tetrahydronaphthalen-1-yl]methyl}amino)pyridine-4-carboxylic acid], the IC50 is 100 to 1000 nM.

Take `CCc1ccc2c(c1)CCC[C@@H]2CNc1cnccc1C(=O)O` [Example 90, 3-({[(1S)-6-ethyl-1,2,3,4-tetrahydronaphthalen-1-yl]methyl}amino)pyridine-4-carboxylic acid]: the IC50 lay within 100 to 1000 nM.

The compound `COc1cc2c(cc1F)[C@@H](CNc1cnccc1C(=O)O)CCC2` [Example 96, 3-({[(1S)-7-fluoro-6-methoxy-1,2,3,4-tetrahydronaphthalen-1-yl]methyl}amino)pyridine-4-carboxylic acid] gave an IC50 of 100 to 1000 nM.

In turn, `COc1ccc2c(c1C)CCC[C@@H]2CNc1cnccc1C(=O)O` [Example 98, 3-({[(1S)-6-methoxy-5-methyl-1,2,3,4-tetrahydronaphthalen-1-yl]methyl}amino)pyridine-4-carboxylic acid] came in with an IC50 of 100 to 1000 nM.

`Cc1ccccc1-c1ccc2c(c1)OCC[C@@H]2CNc1cnccc1C(=O)O` [Example 100, 3-({[(4S)-7-(2-methylphenyl)-3,4-dihydro-2H-1-benzopyran-4-yl]methyl}amino)pyridine-4-carboxylic acid]: the IC50 lay in the range of 1000 to 10000 nM.

`COc1ccc(Cl)c(-c2ccc3c(c2)OCC[C@H]3CNc2cnccc2C(=O)O)c1` [Example 107, 3-({[(4R)-7-(2-chloro-5-methoxyphenyl)-3,4-dihydro-2H-1-benzopyran-4-yl]methyl}amino)pyridine-4-carboxylic acid] displayed an IC50 of 100 to 1000 nM.

With `O=C(O)c1ccncc1NC[C@@H]1CCCc2cc(N3CCOc4ccccc43)ccc21` [Example 108, 3-({[(1R)-6-(3,4-dihydro-2H-1,4-benzoxazin-4-yl)-1,2,3,4-tetrahydronaphthalen-1-yl]methyl}amino)pyridine-4-carboxylic acid], the IC50 fell in the range of 1000 to 10000 nM.

With `CN(c1ccc2c(c1)CCC[C@H]2CNc1cnccc1C(=O)O)C1CCOCC1` [Example 113, 3-({[(1R)-6-[methyl(oxan-4-yl)amino]-1,2,3,4-tetrahydronaphthalen-1-yl]methyl}amino)pyridine-4-carboxylic acid], the 50% inhibitory concentration (IC50) lay within 100 to 1000 nM.

Compound `COc1cc(F)ccc1-c1ccc2c(c1)OCC[C@H]2CNc1cnccc1C(=O)O` [Example 118, 3-({[(4R)-7-(4-fluoro-2-methoxyphenyl)-3,4-dihydro-2H-1-benzopyran-4-yl]methyl}amino)pyridine-4-carboxylic acid] had an IC50 of 100 to 1000 nM.

`CN(c1ccc(C(F)(F)F)cc1)c1ccc2c(c1)OCC[C@H]2CNc1cnccc1C(=O)O` [Example 128, 3-({[(4R)-7-{methyl[4-(trifluoromethyl)phenyl]amino}-3,4-dihydro-2H-1-benzopyran-4-yl]methyl}amino)pyridine-4-carboxylic acid] showed an IC50 of 1000 to 10000 nM.

`O=C(O)c1ccncc1NCC1CCOc2cc(N(CC(F)(F)F)c3ccccc3)ccc21` (centres unmarked) [Example 129, 3-[({7-[phenyl(2,2,2-trifluoroethyl)amino]-3,4-dihydro-2H-1-benzopyran-4-yl}methyl)amino]pyridine-4-carboxylic acid]: the IC50 was in the range of 1000 to 10000 nM.

As for `CN(c1ccc2c(c1)CCC[C@H]2CNc1cnccc1C(=O)O)c1ccc2occc2c1` [Example 137, 3-({[(1R)-6-[(1-benzofuran-5-yl)(methyl)amino]-1,2,3,4-tetrahydronaphthalen-1-yl]methyl}amino)pyridine-4-carboxylic acid], the IC50 lay within 1000 to 10000 nM.

Values taken from patent US10106534B2 (CELGENE QUANTICEL RESEARCH, INC., priority 2014, dated 2018).
